# Laboratory results from US20160201132A1, “GENE EXPRESSION BIOMARKERS OF LAQUINIMOD RESPONSIVENESS” (Teva Pharmaceutical Industries Ltd., priority 2013, published 2016).
# Test system: PBMC of RRMS patients
# Assay: Gene expression microarray analysis (HG-U133A-2) of PBMC from RRMS patients treated with LAQ, ancillary study to ALLEGRO
# Format: in vivo, human
# Settings: for Fold-Change (1.0 vs. 0.0): one month of treatment
# Source text: The goal of this ancillary study was to characterize gene expression changes and corresponding biological mechanisms induced in PBMC of RRMS patients by LAQ treatment. According to ALLEGRO clinical trial inclusion criteria, 25 patients were randomly assigned to receive LAQ (n=13, age 38.8±2.3 years, female/male ratio: 8/5) or placebo (n=12, age 37.2±3.4 years, female/male ratio: 8/4).
# Peripheral blood samples were obtained from RRMS patients at baseline before start of LAQ treatment or placebo, after 0, 1, 6 and 24 month of treatment (visit 0, 1, 6 and 7 according to ALLEGRO clinical trial protocol correspondently) for gene microarray analysis.
# Briefly, 1) Peripheral blood mononuclear cells (PBMC) were obtained from RRMS patients that participated in ALLEGRO and were treated daily with 0.6 mg LAQ or placebo. PBMC were subjected for gene expression analysis (HU-133A-2-Affymatrix arrays) at baseline and at 1 and 6 months of LAQ treatment; 2) Data was analyzed by Partek Genomics Solution software. Most informative genes (MIGs) were defined as those that differentiated between groups with p<0.01. Gene functional annotation, enrichment and pathway analysis were performed by Ingenuity software. For each time point, genes that changed in placebo group were excluded from further analysis; and 3) Verification of LAQ related mechanism was performed by Western blot.
# PBMC were extracted from 15 ml peripheral blood, separated by Ficoll-Hypaque gradient. Total RNA was extracted using both Trizol (Invitrogen, USA) and Phase-Lock-Gel columns (Eppendorf, Germany) including a DNase digestion step. RNA integrity was assessed by RNA Experion automated electrophoresis system (Bio-Rad Laboratories, Hercules, Calif.).
# Probe synthesis using 3 μg total RNA, hybridization, detection, and scanning was performed according to the standard Affymetrix, Inc. USA protocols; cDNA was synthesized using the Two-Cycle cDNA Synthesis Kit (Affymetrix, Inc., USA), and in-vitro transcription performed with the GeneChip IVT Labeling Kit (Affymetrix, Inc., USA). The biotin-labeled IVT-RNA was hybridized to HG-U133A-2 arrays containing 18,400 gene transcripts, each corresponding to 14,500 well-annotated human genes, washed in a GeneChip Fluidics Station 450 (Hewlett Packard, USA, GeneArray-™ scanner G2500A) and scanned according to the manufacturer's protocol (Affymetrix, Inc., USA).
# Data analysis was performed on Partek Genomics Solution software (www.partek.com; Partek Incorporated, St. Louis, Mo.). Expression values were computed from raw CEL files by applying the Robust Multi-Chip Average (RMA) background correction algorithm. RMA correction included: 1) values background correction; 2) quintile normalization; 3) log 2 transformation; and 4) median polish summarization. The ANOVA, Repeated Measures and correlation analysis implicated in Partek software ware applied to evaluate LAQ effects. Most informative genes MIGs were defined as those that differentiated between experimental groups with p<0.01. All p-values were calculated for False Discovery Rate (FDR) multiple test correction at p=0.05.
# Additionally, significance of individual genes was tested by parametric T-test and non parametric Mann-Whitney test using Bootstrapping approach based on repeated permutations of the data with 5% FDR for multiple testing.
# Gene functional annotation, enrichment, and pathway analyses to identify the leading biological pathways that operated under LAQ treatment were performed by Ingenuity Pathways Analysis software (www.ingenuity.com).
# ANOVA analysis was used to compare PBMC gene expression after 1, 6 or 24 month of LAQ treatment with baseline gene expression.
# For each time point inventors performed analysis source of variation in dataset. (FIG. 1). Age, gender and batch effects were considered as confounders regarding LAQ or Placebo related changes. For each time point genes associated with Placebo effect were evaluated and excluded from further analysis. […]
smiles,measurement,setting,value
"CCN(C(=O)c1c(O)c2c(Cl)cccc2n(C)c1=O)c1ccccc1 [LAQ, 5-chloro-N-ethyl-4-hydroxy-1-methyl-2-oxo-N-phenyl-1,2-dihydroquinoline-3-carboxamide]",Fold-Change (1.0 vs. 0.0),LYVE1 220037_s_at,−1.139
same,Fold-Change (1.0 vs. 0.0),MARCH6 201736_s_at,−1.139
same,Fold-Change (1.0 vs. 0.0),MAX 210734_x_at,−1.284
same,Fold-Change (1.0 vs. 0.0),MFAP3L 205442_at,−1.854
same,Fold-Change (1.0 vs. 0.0),MFAP3L 210493_s_at,−1.464
same,Fold-Change (1.0 vs. 0.0),MYL9 201058_s_at,−1.74
same,Fold-Change (1.0 vs. 0.0),MYST3 202423_at,−1.08
same,Fold-Change (1.0 vs. 0.0),NAT8B 206964_at,−1.746
same,Fold-Change (1.0 vs. 0.0),NENF 218407_x_at,−1.141
same,Fold-Change (1.0 vs. 0.0),NRGN 204081_at,−1.604
same,Fold-Change (1.0 vs. 0.0),PDE5A 206757_at,−1.213
same,Fold-Change (1.0 vs. 0.0),PDGFA 205463_s_at,−1.536
same,Fold-Change (1.0 vs. 0.0),PGRMC1 201120_s_at,−1.432
same,Fold-Change (1.0 vs. 0.0),PGRMC1 201121_s_at,−1.443
same,Fold-Change (1.0 vs. 0.0),POPDC3 219926_at,−1.1575
same,Fold-Change (1.0 vs. 0.0),POU1F1 207846_at,−1.091
same,Fold-Change (1.0 vs. 0.0),PPM1A 203966_s_at,−1.182
same,Fold-Change (1.0 vs. 0.0),PRKG1 207119_at,−1.185
same,Fold-Change (1.0 vs. 0.0),PRPF4B 202127_at,−1.135
same,Fold-Change (1.0 vs. 0.0),PSD3 218613_at,−1.258
same,Fold-Change (1.0 vs. 0.0),PTCRA 211837_s_at,−1.274
same,Fold-Change (1.0 vs. 0.0),PTCRA 215492_x_at,−1.526
same,Fold-Change (1.0 vs. 0.0),PTGIS 210702_s_at,−1.095
same,Fold-Change (1.0 vs. 0.0),RBM25 212031_at,−1.105
same,Fold-Change (1.0 vs. 0.0),RET 211421_s_at,−1.221
same,Fold-Change (1.0 vs. 0.0),SDPR 218711_s_at,−1.662
same,Fold-Change (1.0 vs. 0.0),SELP 206049_at,−1.642
same,Fold-Change (1.0 vs. 0.0),SEPT6 214298_x_at,−1.133
same,Fold-Change (1.0 vs. 0.0),SF3B1 201071_x_at,−1.0879
same,Fold-Change (1.0 vs. 0.0),SLC37A1 218928_s_at,−1.126
same,Fold-Change (1.0 vs. 0.0),SPARC 200665_s_at,−1.776
same,Fold-Change (1.0 vs. 0.0),SPARC 212667_at,−1.73
same,Fold-Change (1.0 vs. 0.0),SRRT 201680_x_at,−1.118
same,Fold-Change (1.0 vs. 0.0),TAL1 206283_s_at,−1.752
same,Fold-Change (1.0 vs. 0.0),TAS2R4 221392_at,−1.203
same,Fold-Change (1.0 vs. 0.0),TBXA2R 336_at,−1.433
same,Fold-Change (1.0 vs. 0.0),TGFB1 203085_s_at,−1.24
same,Fold-Change (1.0 vs. 0.0),TMED10 200929_at,−1.099
same,Fold-Change (1.0 vs. 0.0),TNFSF4 207426_s_at,−1.7061
same,Fold-Change (1.0 vs. 0.0),TPM1 210986_s_at,−1.555
same,Fold-Change (1.0 vs. 0.0),TPM1 210987_x_at,−1.447
same,Fold-Change (1.0 vs. 0.0),TPTE 220205_at,−1.158
same,Fold-Change (1.0 vs. 0.0),TRIM58 215047_at,−1.777
same,Fold-Change (1.0 vs. 0.0),TUBB2B 214023_x_at,−1.159
same,Fold-Change (1.0 vs. 0.0),VCL 200931_s_at,−1.406
same,Fold-Change (1.0 vs. 0.0),WASF3 204042_at,−1.606
same,Fold-Change (1.0 vs. 0.0),WDR48 222157_s_at,−1.103
same,Fold-Change (1.0 vs. 0.0),XK 206698_at,−1.88
same,Fold-Change (1.0 vs. 0.0),XYLT1 213725_x_at,1.314
same,Fold-Change (1.0 vs. 0.0),ZNF415 205514_at,−1.154
same,"p, differential expression of cellular movement and migration",after one month of LAQ treatment,3.49*10^−4
same,"genes (#), Caveolar mediated endocytosis",after one month of treatment,8
same,"genes (#), Cellular movement: Adhesion & migration of phagocytes",after one month of treatment,9
same,"genes (#), Chemotaxis of neutrophils",after one month of treatment,4
same,"genes (#), Clathrin mediated endocytosis",after one month of treatment,12
same,"genes (#), Hematological system: Activation of blood platelets",after one month of treatment,13
same,"genes (#), Hematological system: Aggregation of blood cells",after one month of treatment,19
same,"genes (#), Hematological system: Aggregation of blood platelets",after one month of treatment,18
same,"genes (#), Hematological system: Coagulation of blood",after one month of treatment,14
same,"genes (#), Inflammatory response: Adhesion of phagocytes",after one month of treatment,9
same,"genes (#), Inflammatory response: TGFb signaling",after one month of treatment,10
same,"genes (#), Transmigration of leukocytes",after one month of treatment,8
